According to paper PMC8750417, “Intracellular Amplifiers of Reactive Oxygen Species Affecting Mitochondria as Radiosensitizers” (Cancers, 2021):

Columns and labels:
[1] = n-octanol/water partition coefficient (logP) by RP-TLC; format: physicochemical; settings: for logP (Hydrolyzed Prodrug): n-octanol/water partition coefficient of the hydrolyzed boronic acid (_BA) form of the prodrug named; for logP (Prodrug): n-octanol/water partition coefficient of the intact prodrug (or control 2c_c), RP-TLC, MOPS pH 7.4
Description: Determination of n-octanol/water partition coefficients (LogP) […]
mixture of dichloromethane/CH3OH at proper concentrations. Commercially available […]
7.4) (6/4, v/v) was used. The solvent migration distance was around 4.5 cm. The plates […]
and its distance was manually measured. All measurements were done in at least triplicate and average values were used in further calculations. All experiments were performed at ambient temperature (22 ± 2 °C). […]

[2] = Solubility in RPMI 1640 medium, precipitation seen by bright field optical microscopy; settings: DMSO 1%; for Solubility: 48 h incubation in RPMI 1640, FBS 5%, first signs of precipitation; for first signs of precipitation: immediately after dilution in RPMI 1640, FBS 5%
Description: The latter medium was selected, since we used it for the cellular assays. […] Then we monitored the formation of (not detectable in the previous experiment) aggregated species in prodrug solutions that appeared transparent (concentrations < 50 µM) by using dynamic light scattering. […]
Solubility of drugs in aqueous buffers
Observing prodrug precipitation by using bright field optical microscopy […]
glutamine (1 %), and penicillin/streptomycin (1 %) was filled into 96-well microtiter plates (100 µL for each well) and compounds in DMSO stock solution (1 µL) were added. Each well was monitored by using bright field optical microscopy both immediately after […]

[3] = Prodrug-induced generation of ROS in cell free settings (DCFH/H2O2); settings: for ROS Release Efficacy: relative acceleration of the rate of DCFH fluorescence increase with H2O2, pH 7.4, FeSO4 = 1.0
Excerpt: As previously reported, the NAAF-prodrugs react with ROS like H2O2, first leading to the cleavage of the B-C-bond with the formation of the phenol derivatives (product 2c-1, Figure S49, SI). The latter compounds exist in equilibrium with the corresponding phenolates. The phenolates undergo the spontaneous 1,6-elimination of para-quinone methide (QM) followed by the release of CO2 with the formation of the N-alkylaminoferrocene NAAF drugs (product 2c-2, Figure S46, SI). By using electrospray ionization mass spectrometry (ESI–MS), we confirmed for one representative prodrug 2c that it reacts with H2O2 in cell free settings according to this common mechanism (ESI-MS, Figures S46–S48, SI). The NAAF is further oxidized by H2O2 or molecular oxygen with the generation of drug NAAF^+ and highly toxic HO• or/and O2^•−. Finally, the NAAF^+ is reduced by glutathione (GSH), thereby closing the catalytic cycle, in which the NAAF acts as a catalyst. We evaluated the formation of HO• or/and O2^•− by using 2′,7′-dichlorodihydrofluorescein (DCFH) as a probe (Table 1, Figure S49, SI). This probe is oxidized to the fluorescent product 2′,7′-dichlorofluorescein (DCF) in the presence of HO• or/and O2^•−. […] The lower activity of 2c and 2d correlates with their higher lipophilicity and their correspondingly higher propensity to form aggregates in aqueous solution (Figure S45, SI).
Prodrug-induced generation of ROS in cell free settings
2',7'-Dichlorodihydrofluorescein diacetate (DCFH-DA, 4.9 mg) was dissolved in DMF (100 μL) and mixed with aqueous NaOH (0.1 M, 900 μL). The resulting mixture was incubated for 30 min at 22 °C in the dark to obtain a stock solution of 2',7'-dichlorodihydrofluorescein (DCFH, 10 mM). Next, DCFH (1 µL ) was added to the solution containing MOPS buf fer (100 mM, pH 7.4), N,N,N'N' -e thylenediaminetetraacetic acid (EDTA , 10 mM) and glutathione (GSH , 5 mM) (1 mL, final concentration of DCFH 10 μM). The reaction mixture was heated to 37 °C and H2O2 (1 µL, final concentration 10 mM) was added. The reaction was monitored by fluorescence spectroscopy: λex = 501 nm, λem = 523 nm. After around 5 min, prodrugs (1 mM in DMF, 10 μL) or positive control FeSO4 (1 mM in water, 10 μL) were added, and the fluorescence monitoring was continued until the fluorescence signal growth was stalled after approximately 100 to 300 min. A representative kinetics of ROS […]
The data are presented in Table 1 as relative acceleration of the rate of the fluorescence increase, where the rate of the fluorescence increase obtained in the presence of positive control FeSO4 was set […]
y = a time + b (a = (dF/dt) , min-1)
Figure S49. Increase of the fluorescence intensity (λex = 501 nm, λem = 523 nm) upon oxidation of DCFH by H2O2 in the presence of FeSO4. Experimental details are provided in the description above. The time point of the FeSO4 addition is indicated with a black […]
(also on this page, place not known: ° C µL) buffer N,N,N'N'-ethylenediaminetetraacetic (EDTA, (GSH, ° C FeSO 4 (λ ex λ em Fluorescence (a.u.) (dF/dt)0, min -1 Addition of)
(1 picture or pasted object on this page, not shown here)

A2780 cells [4] = assay: Cell viability, MTT assay, A2780; format: cell-based, human
Description: Determination of viability of cells in the presence of prodrugs and controls A2780 and BL-2 cells The medium was removed, and the cells were washed two times with DPBS, trypsinated, and resuspended in RPMI 1640 medium (A2780) supplemented with 5% FBS (for 24 h and 48 h assay) or 10% FBS (for 96 h assay) , 1% L-glutamine, and 1% penicillin/streptomycin.
A2780 cells: This suspension was spread in the wells of a 96 -well microtiter plate (25000 cells for A2780 per well per 100 μL) and left standing at 37 °C in the chamber filled with CO2 (5%) for overnight. Stock solutions of prodrugs of different concentra tions (1 μL, solvent dmso, final concentrations in wells were 2, 5, 10, 30, 50 μM) were added to the wells and incubated for specific periods of time. Four experiments were conducted for each concentration of the prodrug. Finally, 3-(4,5-dimethylthiazol-2-yl)-2,5-diphenyltetrazolium bromide (MTT, 20 μL of the solution prepared by dissolving MTT (5 mg) in DPBS buffer (1 mL)) was added to each well, incubated for 3 h, treated with sodium dodecyl sulfate (SDS) solution (90 μL, 10% solution in 0.01 M aqueous HC l), and incubated overnight. Afterward, the intensity of the absorbance at 590 nm was measured.
MTT is converted in live cells to blue dye with the absorbance maximum λ max at 590 nm.
The absorbance at 690 nm was taken as a baseline value. The baseline corrected absorbance at 590 nm (A(590 nm) − A(690 nm)) was applied to calculate the relative number of viable cells. IC50 values were determined by fitting the experimental data expressing the number of viable cells (%, Y-axis) versus drug concentration (μM, X-axis) with a line curve and the X-axis value corresponding to 50% viability was considered as IC50 value according to the line curve (Figure S50, Table S2). […]

[5] = test system: chronic lymphocytic leukemia (CLL) cells; assay: Viability of primary CLL cells (CellTiter Glo); format: cell-based, human; settings: viability of CLL vs MNC, 48 h; for 2c at 3.3 and 10 µM
Excerpt: Determination of viability of primary cancer (CLL) and normal (MNC) cells in the […]
Clinical samples from chronic lymphocytic leukemia (CLL) patients (N=6, CLL cells) and healthy donors (N=6; peripheral blood mononuclear cells, MNCs) were collected at the University Hospital Heidelberg, Germany. Informed consent was obtained in accordance with the Declaration of Helsinki. Sample collection and analysis was approved by the ethics committee of the University of Heidelberg (S-254/2016). Blood was separated by a Ficoll gradient (GE Healthcarey), and cells were cryopreserved. Drug sensitivity screening was performed in 384-well format (Greiner Bio One) with 10 different prodrug […]
4x10^4 cells per well. Cells were cultured in RPMI-1640 (Invitrogen) supplemented with penicillin/streptomycin (Invitrogen), L-glutamine (Invitrogen) and 10% pooled and heat inactivated AB-type human serum (Sigma-Aldrich). Cell viability was assessed by quantification of ATP (CellTiter Glo®, Promega) 48 hours after drug application.
Luminescence was measured on a Tecan Infinite F200 Microplate Reader. Viability was calculated as % of solvent (DMSO) treated control. Representative plots of cell viability

A2780 cells [6] = assay: Mitochondrial ROS (MitoSOX, flow cytometry), A2780; format: cell-based, human
Description: Monitoring mitochondrial ROS (mROS)
A2780 cells were seeded in RPMI 1640 medium containing 5% FBS, 1% L-glutamine and 1% penicillin/streptomycin in a 96-well microtiter plate (total volume 0.1 mL) at a density of 250 cells/µL one day before the experiment. On the day of the experiment, the cells were washed with DPBS buffer and a fresh portion of RPMI 1640 medium containing 5% FBS, 1% L-glutamine and 1% penicillin/streptomycin (100 µL) was added followed by addition of compounds (1 μL of stock solutions in DMSO, final concentration of the prodrugs was 5, 10 μM and 30 μM) or carrier only (DMSO, 1 µL, final concentration 1 %, v/v) and incubation for 1 or 2 h in the dark chamber filled with CO 2 (5%) at 37 °C. After that, the cells were washed twice with DPBS buffer and the medium was replaced with HBSS (Hanks' Balanced Salt solution, 50 μL) containing MitoSOX (Red Mitochondrial Superoxide Indicator, Thermo-Fisher, Catalog number M36008, final concentration 5 µM obtained by adding 0.5 µ L of the 0.5 mM stock solution of MitoSOX in DMSO to the HBSS ) […]
(1 picture or pasted object on this page, not shown here) […]
and the cells were incubated in the dark chamber filled with CO2 (5%) at 37 °C for 20 min.
Next, the cells were detached from the culture dish using trypsin/EDTA (0.025%/0.01%, v/v, 50 µL). The cells were re-suspended in RPMI 1640 medium containing 5% FBS, 1% L-glutamine and 1% penicillin/streptomycin (100 µL). Finally, the fluorescence of live cells (λex = 488 nm, λem = 578 nm) in the suspensions was determined by using flow cytometry

| SMILES | logP (Hydrolyzed Prodrug) [1] | logP (Prodrug) [1] | Solubility [2] | first signs of precipitation [2] | ROS Release Efficacy [3] | IC50 (A2780 cells [4]; A2780, 24 h incubation) | IC50 (A2780 cells [4]; A2780, 48 h incubation) | IC50 (A2780 cells [4]; A2780, 96 h incubation) | cancer cell specificity, primary CLL cells vs MNCs [5] | ROS-generating activity, fold lower than that of 2a and 2b ([3]; cell free DCFH assay) | cell viability at which the effect is saturated (A2780 cells [4]; A2780, 24 h) | cell viability at which the effect is saturated (A2780 cells [4]; A2780, 48 h) | cell viability at which the effect is saturated (A2780 cells [4]; A2780, 96 h) | mitochondrial ROS (mROS) vs non-treated cells (A2780 cells [6]) |
| --- | --- | --- | --- | --- | --- | --- | --- | --- | --- | --- | --- | --- | --- | --- |
| CC1(C)OB(c2ccc(COC(=O)N(Cc3cn(Cc4ccccc4)nn3)[c-]3cccc3)cc2)OC1(C)C.[Fe+2].c1cc[cH-]c1 [2a] | 2.92 ± 0.14 | 5.27 ± 0.10 | 100 µM | 50 µM | 0.74 ± 0.19 | 23.7 ± 0.6 µM | 16.2 ± 1.8 µM | 10.5 ± 0.7 µM | some specificity towards primary CLL cells | – | – | – | – | – |
| CC1(C)OB(c2ccc(COC(=O)N(Cc3cn(CCc4ccccc4)nn3)[c-]3cccc3)cc2)OC1(C)C.[Fe+2].c1cc[cH-]c1 [2b] | 3.10 ± 0.12 | 5.37 ± 0.10 | 100 µM | 50 µM | 0.76 ± 0.19 | 24.7 ± 0.6 µM | 18.5 ± 1.3 µM | 12 ± 3 µM | some specificity towards primary CLL cells | – | – | – | – | – |
| CN(C)C(=O)c1ccc(COC(=O)N(Cc2cn(Cc3ccc(Cn4cc(Cc5ccccc5)nn4)cc3)nn2)[c-]2cccc2)cc1.[Fe+2].c1cc[cH-]c1 [2c_c] | – | 3.90 ± 0.08 | 55 ± 5 µM | – | 0.050 ± 0.003 | – | – | 6.1 ± 1.5 µM | – | – | – | – | – | – |
| CC1(C)OB(c2ccc(COC(=O)N(Cc3cn(Cc4ccc(Cn5cc(CCc6ccccc6)nn5)cc4)nn3)[c-]3cccc3)cc2)OC1(C)C.[Fe+2].c1cc[cH-]c1 [2d] | 3.42 ± 0.14 | 5.56 ± 0.14 | 30 µM | 30 µM | 0.37 ± 0.13 | > 30 µM | > 30 µM | 8.3 ± 1.5 µM | some specificity towards primary CLL cells | ~ 2 fold | 70% | 50% | 43% | – |
| CC1(C)OB(c2ccc(COC(=O)N[c-]3cccc3)cc2)OC1(C)C.[Fe+2].c1cc[cH-]c1 [5a] | – | – | – | – | – | – | – | – | – | – | – | – | – | substantially weaker |
